Laboratory results taken from patent US20260199492A1, “PSD-95 DOMAIN INHIBITOR, AND PREPARATION METHOD THEREFOR AND USE THEREOF” (SHENZHEN SALUBRIS PHARMACEUTICALS CO., LTD, priority 2023, published 2026).
Square brackets hold non-standard residues; d marks the D form. Ends that are not written are not given here. Peptide text beside a SMILES is read from it.

How the values were obtained:
[1] = molecular target: PDZ1-2 of PSD95 (Homo sapiens, UniProt P78352); assay: Fluorescence polarization competition binding assay of PDZ1-2 with probe 5-FAM-NA-1
Chain of PDZ1-2 of PSD95 (P78352 61-249 limits assumed): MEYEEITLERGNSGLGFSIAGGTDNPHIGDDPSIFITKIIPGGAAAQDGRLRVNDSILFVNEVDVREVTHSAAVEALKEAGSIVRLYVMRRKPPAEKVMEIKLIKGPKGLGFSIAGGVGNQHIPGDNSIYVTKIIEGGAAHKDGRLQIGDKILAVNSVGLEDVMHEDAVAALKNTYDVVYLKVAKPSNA

[2] = Toxicological experiment: serum UREA and CREA after 5 days of i.v. dosing; type: in vivo, SD rats; details: male SD rats, 30 mg/kg i.v. once daily for 5 days, serum 2 h after dosing on day 5
Procedure: The compounds of Examples 1-8 were accurately weighed into suitable EP tubes, and the vehicle (saline) was added to formulate a solution of a concentration of 15 mg/mL. The solution was filtered using a 0.2 μm filter for future use.
A total of 18 male SD rats of 6-7 weeks of age were used for test. After the animal quarantine and acclimatization period, the animals were randomly divided into 6 groups according to their body weights measured before grouping, vehicle control group (saline) as well as example compounds groups, 3 animals/group. Using the above prepared solution, the animal was administered intravenously via the tail vein at a dosage of 30 mg/kg and a dosing volume of 2 mL/kg. The dosing volume for each animal was calculated according to the body weight. Administration was performed once daily for 5 consecutive days. After 2 h of administration on day 5, the animals were deeply anesthetized by intraperitoneal injection of sodium pentobarbital. The thoracic cavity was opened, and blood was collected from the abdominal aorta into blood collection tubes containing inert separation gel and coagulant. The serum was collected by centrifugation (4000 rpm, 10 min) after about 1 h of resting. The concentrations of UREA and CREA in the serum were detected using a biochemical analyzer. The percentage change of each example compound relative to the vehicle control group was calculated using the formula: %=(Concentration of example compound−Concentration of vehicle control group)/Concentration of vehicle control group.

[3] = Tissue distribution experiment of TAMRA-labeled compounds; type: in vivo; details: TAMRA-labeled compound, male Balb/c mice, 3 nmol/g tail vein injection, 45 min circulation, after perfusion
Procedure: The TAMRA-labeled example compounds were dissolved in saline to prepare a solution with a concentration of 600 μM/mL. A 100 μL of the above prepared solution was administered, at a dose of 3 nmol/g, to 6-week-old male Balb/c mice (18-22 g) via tail vein injection. After 45 min of circulation, the animals were deeply anesthetized by intraperitoneal injection of sodium pentobarbital. The thoracic cavity was opened, and the mice were subjected to cardiac perfusion using 0.01 M PBS (pH 7.4), and the brains, kidneys, and livers were collected at the end of perfusion. The harvested tissues were immediately placed on ice and stored at −80° C. […] The supernatant was transferred to a black 96-well plate with a clear bottom, and the TAMRA-peptide was quantified using a PHERAstar FSX plate reader (BMG LABTECH, Ortenberg, Germany). The excitation/emission wavelengths were set at 540/580 nm. The corresponding peptide concentration in the tissues was calculated using a standard curve (blank tissue mixed with TAMRA-peptide, concentration range of 0-1000 nM).

[4] = in vitro; details: human, plasma
Procedure: (§1) • Plasma: Human plasma is commercially available. • Reagents: DMSO (dimethyl sulfoxide), disodium hydrogen phosphate, sodium dihydrogen phosphate, methanol, formic acid, and propranolol (internal standard) are commercially available. • Instrument: AB SCIEX QTRAP 5500+.
(§2) 5 μL of stock solution (10 mM) was diluted with 495 μL of 0.05 M sodium phosphate buffer to 100 μM of dosing solution. The final concentration of tested drug for incubation was 10 μM.
(§3) A certain volume (e.g., 27 μL or 24 μL) of plasma was added into a 96-well plate. An appropriate volume of the internal standard working solution (e.g., 150 μL) was immediately added to precipitate. […] This was performed in duplicate.
(§4) Then, an appropriate amount of plasma (e.g., 27 μL or 24 μL) was added at the designed time points (e.g., 5 min, 15 min, 30 min, 60 min, and 120 min, etc.), and the parallel replicate wells were performed at each time point. […] The reaction was terminated by adding an appropriate amount of internal standard working solution (e.g., 150 μL) at the end of the time, and the mixture was mixed thoroughly.
(§5) The mixture was centrifuged at 4000 rpm for 15 min. A certain amount of the supernatant was taken, mixed with a certain amount of water, and then subjected to LC/MS/MS analysis. LC-MS detection conditions were as follows: • Chromatography column: YMC Triart C18, 50*3.0 mm, 2.1 μm. • Mobile phase: Gradient elution was performed using water (0.1% formic acid)-acetonitrile according to the table below.
(§6) The relative content of drug at each time point was calculated using the initial 0 point as 100%. The half-life of the drug was calculated by plotting “relative drug content” against “incubation time” using GraphPad Prism 5 software.

[5] = In vitro plasma stability experiment (compounds), without or with tPA; details: human, With tPA T1/2, human plasma, 37° C., initial concentration 10 μM, with rt-PA […]
Procedure: as §1, §2, §3, §4, §5, §6

Compound | IC50 [1] [µM] | CREA, percentage change compared to vehicle control group [2] [%] | UREA, percentage change compared to vehicle control group [2] [%] | Mean tissue concentration, Brain [3] [nmol/g] | half-life ([4]; With tPA T1/2) [h] | half-life ([4]; Without tPA T1/2) [h] | half-life at 10 μM [5] [min]
CC[C@H](C)[C@H](NC(=O)[C@H](CO)NC(=O)[C@H](CO)NC(=O)[C@H](CC(C)C)NC(=O)[C@@H](CCCCN)NC(=O)[C@H](CCCNC(=N)N)NC(=O)[C@@H](CCCNC(=N)N)NC(=O)[C@H](CCC(N)=O)NC(=O)[C@@H](CCCNC(=N)N)NC(=O)[C@H](CCCNC(=N)N)NC(=O)[C@H](CCCCN)NC(=O)[C@H](CCCCN)NC(=O)[C@@H](CCCNC(=N)N)NC(=O)CNC(=O)[C@@H](N)Cc1ccc(O)cc1)C(=O)N[C@@H](CCC(=O)O)C(=O)N[C@@H](CO)C(=O)N[C@@H](CC(=O)O)C(=O)N[C@H](C(=O)O)C(C)C [Compound 1] (H-YG[dR]KKR[dR]Q[dR]R[dK]LSSIESDV-OH; N-terminus and C-terminus assumed) | 14.9 | 216.9 | 206.9 | 5.9220 |  |  | 
CC[C@H](C)[C@H](NC(=O)[C@H](CO)NC(=O)[C@H](CO)NC(=O)[C@H](CC(C)C)NC(=O)[C@@H](CCCCN)NC(=O)[C@H](CCCNC(=N)N)NC(=O)[C@H](CCCNC(=N)N)NC(=O)[C@@H](CCCNC(=N)N)NC(=O)[C@H](CCC(=O)O)NC(=O)[C@@H](CCCNC(=N)N)NC(=O)[C@H](CCCNC(=N)N)NC(=O)[C@H](CCCCN)NC(=O)[C@H](CCCCN)NC(=O)[C@@H](CCCNC(=N)N)NC(=O)CNC(=O)[C@@H](N)Cc1ccc(O)cc1)C(=O)N[C@@H](CCC(=O)O)C(=O)N[C@@H](CO)C(=O)N[C@@H](CC(=O)O)C(=O)N[C@H](C(=O)O)C(C)C [Compound 15] (H-YG[dR]KKR[dR]E[dR]RR[dK]LSSIESDV-OH) | 11.3 | 90.8 | 88.6 | 4.4515 | > 33.3 | > 33.3 | 
YGRKKRRQRRRKLSSIESDV [NA-1, reference compound] |  |  |  | 2.9115 |  |  | 3.61
